# Marks after values point to notes of the source that are not given here.
# Assay: logP determination via retention times, calibrated with unbranched alkan-2-ones
# Assay type: physicochemical
# Conditions: HPLC on reversed-phase C 18, EEC Directive 79/831 Annex V.A8; method *: 40° C., 0.1% aqueous formic acid and acetonitrile, linear gradient 10% to 95% acetonitrile
row,SMILES,logP
1,FC(F)Sc1ccc(Nc2ncc(Br)c(NCC3CC3)n2)cc1 [compound 470],3.07*
2,CN1CC(=O)N(c2ccc(Nc3ncc(Cl)c(NCC4CC4)n3)cc2)C1=O [compound 523],1.53*
3,O=C1COCCN1c1ccc(Nc2ncc(Br)c(NC3CC3)n2)cc1 [compound 500],1.29*
4,CC(C)C(=O)Nc1ccc(Nc2ncc(Cl)c(NCC3CC3)n2)cc1 [compound 526],1.73*
5,CCOC(=O)Cc1ccc(Nc2ncc(Cl)c(NCC3CC3)n2)cc1 [compound 539],2.09*
6,FC(F)(F)c1cnc(Nc2cccc(N3CCCC3)c2)nc1NC1CC1 [compound 564],3.55*

# Same assay, conditions: HPLC on reversed-phase C 18, method **: 43° C.; 0.1% aqueous phosphoric acid and acetonitrile; linear gradient 10% to 95% acetonitrile
row,SMILES,logP
1,CN(CC1CC1)c1nc(Nc2ccc(N3CCCC3=O)cc2)ncc1Cl [compound 966],2.09**

# Same assay, conditions: HPLC on reversed-phase C18, method **: 43° C.; mobile phase 0.1% aqueous phosphoric acid and acetonitrile; linear gradient 10% to 95% acetonitrile
row,SMILES,logP
1,CC(C)NS(=O)(=O)Cc1cccc(Nc2ncc(Cl)c(NC3CC3)n2)c1 [compound 325],1.78**

# Same assay, conditions: HPLC on reversed-phase C18, method *: 40° C., 0.1% aqueous formic acid and acetonitrile, linear gradient 10% to 95% acetonitrile
row,SMILES,logP
1,Clc1ccc(Oc2ccccc2)c(Nc2ncc(Cl)c(NC3CC3)n2)c1 [compound 873],4.87*
2,Fc1cc(Cl)ccc1Nc1ncc(Cl)c(NC2CC2)n1 [compound 947],3.03*
3,O=C(Nc1ccc(Nc2ncc(Cl)c(NCC3CC3)n2)cc1)C(F)(F)F [compound 672],2.02*
4,O=C1CCCCN1c1cccc(Nc2ncc(Br)c(NC3CC3)n2)c1 [compound 733],1.55*
5,CC(C)(C)C(=O)Cc1ccc(Nc2ncc(Cl)c(NCC3CC3)n2)cc1 [compound 676],2.39*
6,CC(=O)Nc1cc(Nc2ncc(Cl)c(NCC3CC3)n2)ccc1C [compound 679],1.49*
7,FC(F)Sc1ccc(Nc2ncc(Br)c(NC3CC3)n2)cc1 [Example 104],2.99*
8,CCCCC(=O)Oc1ccc(Nc2ncc(Cl)c(NC3CC3)n2)cc1 [compound 106],3.68*
9,O=c1ccccn1-c1cccc(Nc2ncc(Cl)c(NC3CC3)n2)c1 [compound 726],1.39*
10,CS(=O)(=O)Nc1ccc(Nc2ncc(Br)c(NC3CC3)n2)cc1 [compound 756],1.44*
11,CCCc1ccccc1Nc1ncc(Cl)c(NC2CC2)n1 [compound 912],2.01*
12,Clc1cnc(Nc2ccccc2Sc2ccccc2)nc1NC1CC1 [compound 884],3.94*
13,O=C(c1cccc(Nc2ncc(Cl)c(NC3CC3)n2)c1)N1CCCCC1 [compound 770],1.94*
14,FC(F)(F)Sc1ccc(Nc2ncc(Br)c(NC3CC3)n2)cc1 [compound 745],3.9*
15,FC(F)(F)Sc1ccccc1Nc1ncc(Cl)c(NC2CC2)n1 [compound 944],3.72*
16,CC(C)(C)NC(=O)c1ccc(Nc2ncc(Cl)c(NCC3CC3)n2)cc1 [compound 673],2.21*
17,FC(F)(F)Oc1ccc(Nc2ncc(Cl)c(NCC3CC3)n2)cc1 [compound 688],2.95*
18,Fc1cc(C(F)(F)F)ccc1Nc1ncc(Cl)c(NC2CC2)n1 [compound 934],3.68*
19,CCSc1cccc(Nc2ncc(Br)c(NC3CC3)n2)c1 [compound 708],2.92*
20,O=C1C=CC(=O)N1c1ccc(Nc2ncc(Cl)c(NC3CC3)n2)cc1 [compound 156],1.58*
21,CSc1ccc(Nc2ncc(Br)c(NC3CC3)n2)cc1Cl [compound 746],3.03*

# Same assay, conditions: HPLC on reversed-phase C18, method *: 40° C.; mobile phase 0.1% aqueous formic acid and acetonitrile; linear gradient 10% to 95% acetonitrile
row,SMILES,logP
1,CCC(=O)c1cccc(Nc2ncc(Br)c(NC3CC3)n2)c1 [compound 305],2.32*
2,FC(F)Oc1cccc(Nc2ncc(Br)c(NC3CC3)n2)c1 [compound 332],2.66*
3,CCC(=O)c1cccc(Nc2ncc(Cl)c(NC3CC3)n2)c1 [compound 304],2.25*
4,O=C1CCCN1c1cccc(Nc2ncc(Cl)c(NC3(c4ccccc4Cl)CC3)n2)c1 [compound 323],2.95*
5,CC(C)c1cccc(Nc2ncc(Br)c(NC3CC3)n2)c1 [compound 363],2.8*
6,CCOC(=O)C1(Nc2nc(Nc3cc(OC)c(OC)c(OC)c3)ncc2Cl)CC1 [compound 317],2.01*
7,COc1ccccc1Nc1ncc(Cl)c(NC2CC2)n1 [compound 282],1.85*

# Same assay, conditions: HPLC on reversed-phase C18 column (EEC Directive 79/831 Annex V.A8); method *: 40° C.; 0.1% aqueous formic acid and acetonitrile; linear gradient 10% to 95% acetonitrile
row,SMILES,logP
1,COc1cc(Nc2ncc(Cl)c(NC3CC3)n2)ccc1F [compound 259],1.9*
2,CC(=O)N(C)c1ccc(Nc2ncc(C(F)(F)F)c(NCC3CC3)n2)cc1 [compound 202],2.13*

# Same assay, conditions: HPLC reversed-phase C 18, EEC Directive 79/831 Annex V.A8; method *: 40° C., 0.1% aqueous formic acid and acetonitrile, linear gradient 10% to 95% acetonitrile
row,SMILES,logP
1,CC(C)(C)c1ccc(Nc2ncc(Cl)c(NC3CC3)n2)cc1 [compound 829],2.92*
2,CC(C)(O)c1cccc(Nc2ncc(Cl)c(NC3CC3)n2)c1 [compound 784],1.47*
3,CO/N=C(\C)Cc1cccc(Nc2ncc(Cl)c(NC3CC3)n2)c1 [compound 854],2.2*
4,O=C1COCCN1c1cccc(Nc2ncc(Cl)c(NCC3CC3)n2)c1 [compound 786],1.31*
5,CN(C)C(=O)c1ccc(Nc2ncc(C(F)(F)F)c(NC3CC3)n2)cc1 [compound 824],2.08*

# Same assay, conditions: method **: HPLC reversed-phase C 18, 43° C., 0.1% aqueous phosphoric acid and acetonitrile, linear gradient 10% to 95% acetonitrile
row,SMILES,logP
1,FC(F)(F)c1cnc(Nc2ccccc2)nc1NC1CC1 [Example 93],2.62**
2,CCOC1(Nc2nc(Nc3ccccc3)ncc2Cl)CC1 [compound 39],2.23**
3,CN(C)S(=O)(=O)c1ccc(Nc2ncc(Cl)c(NC3CC3)n2)cc1 [Example 6],2.26**
4,Clc1cccc(Nc2ncc(Cl)c(NCC3CC3)n2)c1 [compound 9],2.7**
5,Cl.Fc1cnc(Nc2ccccc2)nc1NC1CC1 [compound 41],1.45**

# Same assay, conditions: method **: HPLC reversed-phase C 18, temperature 43° C.; mobile phase 0.1% aqueous phosphoric acid and acetonitrile; linear gradient 10% to 95% acetonitrile
row,SMILES,logP
1,COC(=O)Nc1cccc(Nc2ncc(C(F)(F)F)c(NC3CC3)n2)c1 [compound 660],2.06**
2,CNC(=O)Oc1cccc(Nc2ncc(C(F)(F)F)c(NC3CC3)n2)c1 [compound 659],2.13**

# Same assay, conditions: method **: HPLC, reversed-phase C 18, 43° C., mobile phase 0.1% aqueous phosphoric acid and acetonitrile, linear gradient from 10% to 95% acetonitrile
row,SMILES,logP
1,COc1ccc(CN(c2nc(Nc3ccccc3)ncc2Cl)C2CC2)cc1 [compound 1025],4.15**
2,Clc1cnc(Nc2cccc(Cn3ccnc3)c2)nc1NC1CC1 [compound 1046],0.83**

# Same assay, conditions: method *: HPLC reversed-phase C18, 40° C., 0.1% aqueous formic acid and acetonitrile, linear gradient 10% to 95% acetonitrile
row,SMILES,logP
1,COC(=O)Nc1cccc(Nc2ncc(Br)c(NCC3CC3)n2)c1 [compound 458],1.73*
2,Clc1cnc(Nc2ccccc2)nc1NC1CC1 [Example 70],1.28*
3,CN(C)C(=O)c1ccc(Nc2ncc(Br)c(NCC3CC3)n2)cc1 [compound 452],1.66*;
4,CSc1ccc(Nc2ncc(Cl)c(NC3CC3)n2)cc1 [Example 69],2.1*
5,CC(C)(C)NC(=O)c1ccc(Nc2ncc(Br)c(NCC3CC3)n2)cc1 [compound 426],2.3*
6,FC(F)(F)Sc1ccc(Nc2ncc(Cl)c(NC3CC3)n2)cc1 [compound 376],3.72*
7,CC(=O)c1cc(Nc2ncc(Br)c(NCC3CC3)n2)ccc1O [compound 463],1.92*
8,O=S(=O)(Cc1cccc(Nc2ncc(Cl)c(NC3CC3)n2)c1)Nc1ccccc1 [compound 370],2.15*
9,FC(F)C(F)(F)Oc1ccc(Nc2ncc(Br)c(NCC3CC3)n2)cc1 [compound 462],2.8*

# Same assay, conditions: method *: HPLC reversed-phase C 18, temperature 40° C.; mobile phase 0.1% aqueous formic acid and acetonitrile; linear gradient 10% to 95% acetonitrile
row,SMILES,logP
1,FC(F)(F)Oc1cccc(Nc2ncc(C(F)(F)F)c(NC3CC3)n2)c1 [compound 643],4.08*
2,CC(C)(C)C(=O)Cc1ccc(Nc2ncc(F)c(NC3CC3)n2)cc1 [compound 589],1.92*
3,COC(=O)Nc1cccc(Nc2ncc(C(F)(F)F)c(NC3CC3)n2)c1 [compound 660],2.16*;
4,CSc1ccc(Nc2ncc(F)c(NC3CC3)n2)cc1 [compound 587],1.68*
5,CC(=O)Nc1ccc(Nc2ncc(F)c(NC3CC3)n2)cc1Cl [compound 580],1.32*
6,CNC(=O)Oc1cccc(Nc2ncc(C(F)(F)F)c(NC3CC3)n2)c1 [compound 659],2.06*;
7,COc1cc(Nc2ncc(C(F)(F)F)c(NC3CC3)n2)ccc1F [compound 635],2.99*
8,COc1cc(Nc2ncc(C(F)(F)F)c(NC3CC3)n2)ccc1NC(C)=O [compound 639],1.85*
9,CC(C)(C)C(=O)Nc1cccc(Nc2ncc(C(F)(F)F)c(NC3CC3)n2)c1 [compound 650],2.6*
10,CCC(=O)Nc1cccc(Nc2ncc(C#N)c(NC3CC3)n2)c1 [compound 607],1.94*
11,CS(=O)(=O)c1ccc(Nc2ncc(C(F)(F)F)c(NC3CC3)n2)cc1 [compound 644],2.36*
12,CC(=O)c1ccc(Nc2ncc(F)c(NC3CC3)n2)cc1 [compound 590],1.53*

# Same assay, conditions: method *: HPLC, reversed-phase C 18, 40° C., mobile phase 0.1% aqueous formic acid and acetonitrile, linear gradient from 10% to 95% acetonitrile
row,SMILES,logP
1,COCc1cc(COC)cc(Nc2ncc(Cl)c(NC3CC3)n2)c1 [compound 1012],1.76*
2,CCOC(=O)c1cc(Nc2ncc(Cl)c(NC3CC3)n2)ccc1Cl [compound 990],2.84*
3,Clc1cnc(Nc2cccc(OCCN3CCOCC3)c2)nc1NC1CC1 [compound 1040],0.84*
4,CCSC(C)c1cccc(Nc2ncc(C(F)(F)F)c(NCC3CC3)n2)c1 (centres unmarked) [compound 988],4.37*

# Same assay, conditions: pH 2.3; read-out: logP (pH2.3)
row,SMILES,chromatographic logP
1,COc1cnc(Cl)nc1NC1CC1 [2-chloro-N-cyclopropyl-5-methoxypyrimidine-4-amine],1.38
2,"CCOC1(Nc2nc(Cl)ncc2Cl)CC1 [2,5-Dichloro-N-(1-ethoxycyclopropyl)pyrimidine-4-amine]",2.09
3,"Ic1cnc(Nc2ccccc2)nc1NC1CC1 [N^4-Cyclopropyl-5-iodo-N^2-phenylpyrimidine-2,4-diamine]",1.82

# Reference: patent US20100081679A1, “DIAMINOPYRIMIDINES AS FUNGICIDES” (Bayer CropScience AG, priority 2007, published 2010)
